Experiments:
A549 [1] = assay: Cytotoxicity against human A549 cells after 72 hrs by MTT assay; assay type: functional, cell-based
[2] = biological target: Hepatocyte growth factor receptor (Homo sapiens, UniProt P08581); assay: Inhibition of c-Met (unknown origin) by mobility shift assay
MCF7 = assay: Cytotoxicity against human MCF7 cells after 72 hrs by MTT assay; assay type: functional, cell-based
HeLa = assay: Cytotoxicity against human HeLa cells after 72 hrs by MTT assay; assay type: functional, cell-based
A549 [3] = assay: Cytotoxicity against human A549 cells assessed as inhibition rate at 11.11 uM after 72 hrs by MTT assay relative to control; assay type: functional
A549 [4] = assay: Induction of cell cycle arrest in human A549 cells assessed as accumulation at S phase at 5 uM incubated for 24 hrs by propidium iodide staining based flow cytometry (reference value: 27.97 %); assay type: functional
A549 [5] = assay: Cytotoxicity against human A549 cells assessed as inhibition rate at 0.137 uM after 72 hrs by MTT assay relative to control; assay type: functional
A549 [6] = assay: Cytotoxicity against human A549 cells assessed as inhibition rate at 100 uM after 72 hrs by MTT assay relative to control; assay type: functional
A549 [7] = assay: Induction of cell cycle arrest in human A549 cells assessed as accumulation at G2 phase at 5 uM incubated for 24 hrs by propidium iodide staining based flow cytometry (reference value: 7.56 %); assay type: functional
A549 [8] = assay: Cytotoxicity against human A549 cells assessed as inhibition rate at 3.704 uM after 72 hrs by MTT assay relative to control; assay type: functional
A549 [9] = assay: Cytotoxicity against human A549 cells assessed as inhibition rate at 1.234 uM after 72 hrs by MTT assay relative to control; assay type: functional
A549 [10] = assay: Cytotoxicity against human A549 cells assessed as inhibition rate at 0.411 uM after 72 hrs by MTT assay relative to control; assay type: functional
A549 [11] = assay: Induction of cell cycle arrest in human A549 cells assessed as accumulation at G0/G1 phase at 5 uM incubated for 24 hrs by propidium iodide staining based flow cytometry (reference value: 64.47 %); assay type: functional
A549 [12] = assay: Cytotoxicity against human A549 cells assessed as inhibition rate at 33.33 uM after 72 hrs by MTT assay relative to control; assay type: functional
A549 [13] = assay: Cytotoxicity against human A549 cells assessed as reduction in cell survival after 72 hrs by MTT assay; assay type: functional, cell-based; settings: dose 0.137-100 µM
[14] = Homo sapiens, A549, 72 h, read-out: IC50
[15] = Homo sapiens, MCF7, 72 h, read-out: IC50

Chain of Hepatocyte growth factor receptor (P08581 whole entry): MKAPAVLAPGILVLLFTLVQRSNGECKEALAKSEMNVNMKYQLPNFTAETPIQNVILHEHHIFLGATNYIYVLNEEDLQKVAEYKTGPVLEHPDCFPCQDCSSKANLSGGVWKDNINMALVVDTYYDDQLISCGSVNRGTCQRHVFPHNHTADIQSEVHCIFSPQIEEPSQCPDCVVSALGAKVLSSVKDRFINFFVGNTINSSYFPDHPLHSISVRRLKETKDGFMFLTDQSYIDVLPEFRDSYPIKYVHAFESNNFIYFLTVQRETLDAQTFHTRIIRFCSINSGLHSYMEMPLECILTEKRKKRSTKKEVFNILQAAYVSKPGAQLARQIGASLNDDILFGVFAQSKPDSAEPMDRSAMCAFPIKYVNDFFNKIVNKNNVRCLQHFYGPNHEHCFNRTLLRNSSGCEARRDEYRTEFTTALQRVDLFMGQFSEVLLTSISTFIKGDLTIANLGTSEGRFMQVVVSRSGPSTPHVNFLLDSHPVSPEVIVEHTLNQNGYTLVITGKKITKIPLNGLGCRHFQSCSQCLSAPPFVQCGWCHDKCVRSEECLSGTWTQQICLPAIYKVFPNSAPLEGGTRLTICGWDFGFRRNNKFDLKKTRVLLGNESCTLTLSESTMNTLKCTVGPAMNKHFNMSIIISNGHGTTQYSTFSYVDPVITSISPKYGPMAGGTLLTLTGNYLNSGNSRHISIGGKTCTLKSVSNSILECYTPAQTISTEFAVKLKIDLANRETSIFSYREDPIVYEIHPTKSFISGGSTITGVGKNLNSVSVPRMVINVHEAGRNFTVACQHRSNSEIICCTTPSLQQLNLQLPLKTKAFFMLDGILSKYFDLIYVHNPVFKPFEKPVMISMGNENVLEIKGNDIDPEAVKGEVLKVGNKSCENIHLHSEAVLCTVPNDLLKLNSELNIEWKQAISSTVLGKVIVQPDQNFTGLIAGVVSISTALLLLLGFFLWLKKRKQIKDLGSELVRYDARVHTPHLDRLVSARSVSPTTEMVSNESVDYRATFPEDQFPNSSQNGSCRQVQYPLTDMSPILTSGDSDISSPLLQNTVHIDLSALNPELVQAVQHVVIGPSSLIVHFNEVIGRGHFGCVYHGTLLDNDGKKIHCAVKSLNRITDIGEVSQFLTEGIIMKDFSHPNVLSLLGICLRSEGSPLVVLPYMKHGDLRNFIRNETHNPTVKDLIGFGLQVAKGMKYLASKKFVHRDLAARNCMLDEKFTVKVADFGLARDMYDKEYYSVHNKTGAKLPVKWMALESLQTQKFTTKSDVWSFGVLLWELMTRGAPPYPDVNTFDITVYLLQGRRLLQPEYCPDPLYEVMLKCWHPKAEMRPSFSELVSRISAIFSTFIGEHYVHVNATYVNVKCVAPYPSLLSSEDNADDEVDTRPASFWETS

| Structure (SMILES) | IC50 (A549 [1]; [14]) [µM] | IC50 (MCF7; [15]) [µM] | IC50 (HeLa) [µM] | further results |
| --- | --- | --- | --- | --- |
| Cn1ccc2c(Oc3ccc(NC(=O)c4cc5cccnc5n(-c5ccc(F)cc5)c4=O)cc3F)ncnc21 | 7.32 | 11.9 | 4.25 | IC50 [2]: 0.701 µM |
| Cn1ccc2c(Oc3ccc(NC(=O)c4cc5cccnc5n(-c5ccc(C(F)(F)F)cc5Cl)c4=O)cc3F)ncnc21 |  |  | 170 | IC50 (A549 [1]; a549): Not Active; IC50 (MCF7; mcf7): Not Active |
| O=C(Nc1ccc(Oc2ncnc3[nH]ccc23)c(F)c1)c1cc2cccnc2n(-c2ccc(Br)cc2)c1=O | 27.3 | 27 | 19.9 |  |
| O=C(Nc1ccc(Oc2ncnc3[nH]ccc23)c(F)c1)c1cc2cccnc2n(-c2ccc(F)cc2)c1=O | 5.29 | 9.23 | 3.72 | inhibition at 11.11 µM (A549 [3]): 54.5%; IC50 [2]: 0.612 µM; Activity (A549 [4]): 21.11%; inhibition at 0.137 µM (A549 [5]): 12.7%; inhibition at 100 µM (A549 [6]): 90.5%; Activity (A549 [7]): 5.43%; inhibition at 3.704 µM (A549 [8]): 42.3%; inhibition at 1.234 µM (A549 [9]): 23.4%; inhibition at 0.411 µM (A549 [10]): 18.1%; Activity (A549 [11]): 73.46%; inhibition at 33.33 µM (A549 [12]): 80.6%; Activity (A549 [13]): Dose-dependent effect |
| Cn1ccc2c(Oc3ccc(NC(=O)c4cc5cccnc5n(-c5ccccc5)c4=O)cc3)ncnc21 | 66.2 | 88.4 | 59.8 |  |
| Cn1ccc2c(Oc3ccc(NC(=O)c4cc5cccnc5n(-c5ccc(Cl)cc5)c4=O)cc3)ncnc21 | 75.5 | 95 | 49.9 |  |
| O=C(Nc1ccc(Oc2ncnc3[nH]ccc23)c(F)c1)c1cc2cccnc2n(-c2ccc(Br)cc2F)c1=O | 218 | 102 | 87.8 |  |
| COc1ccc(-n2c(=O)c(C(=O)Nc3ccc(Oc4ncnc5c4ccn5C)cc3)cc3cccnc32)cc1 | 83.2 | 105 | 65.8 |  |
| Cn1ccc2c(Oc3ccc(NC(=O)c4cc5cccnc5n(-c5ccc(C(F)(F)F)cc5Cl)c4=O)cc3)ncnc21 | 364 |  | 174 | IC50 (MCF7; mcf7): Not Active |
| Cn1ccc2c(Oc3ccc(NC(=O)c4cc5cccnc5n(-c5ccc(Br)cc5)c4=O)cc3F)ncnc21 | 42.2 | 59.4 | 33.8 |  |
| CN1CCN(C2CCN(C(=O)Nc3cc(Oc4ccc(NC(=O)C5(C(=O)Nc6ccc(F)cc6)CC5)c(F)c4)ccn3)CC2)CC1 [GOLVATINIB] | 7.7 | 15.4 | 4.23 | inhibition at 11.11 µM (A549 [3]): 47.5%; Activity (A549 [4]): 19.82%; inhibition at 0.137 µM (A549 [5]): 13.7%; inhibition at 100 µM (A549 [6]): 85.1%; Activity (A549 [7]): 6.53%; inhibition at 3.704 µM (A549 [8]): 35.3%; inhibition at 1.234 µM (A549 [9]): 21.4%; inhibition at 0.411 µM (A549 [10]): 17.2%; Activity (A549 [11]): 73.65%; inhibition at 33.33 µM (A549 [12]): 76.5% |
| Cn1ccc2c(Oc3ccc(NC(=O)c4cc5cccnc5n(-c5ccc(C(F)(F)F)c(Cl)c5)c4=O)cc3)ncnc21 |  |  | 289 | IC50 (A549 [1]; a549): Not Active; IC50 (MCF7; mcf7): Not Active |
| O=C(Nc1ccc(Oc2ncnc3[nH]ccc23)c(F)c1)c1cc2cccnc2n(-c2ccccc2)c1=O | 45.5 | 45 | 36.9 |  |
| Cn1ccc2c(Oc3ccc(NC(=O)c4cc5cccnc5n(-c5ccc(Cl)cc5)c4=O)cc3F)ncnc21 | 55.5 | 75 | 43.9 | IC50 [2]: 3.79 µM |
| Cn1ccc2c(Oc3ccc(NC(=O)c4cc5cccnc5n(-c5ccc(C(F)(F)F)c(Cl)c5)c4=O)cc3F)ncnc21 | 320 |  | 156 | IC50 (MCF7; mcf7): Not Active |
| O=C(Nc1ccc(Oc2ncnc3[nH]ccc23)c(F)c1)c1cc2cccnc2n(-c2ccc(C(F)(F)F)cc2Cl)c1=O | 283 | 214 | 96.8 |  |
| O=C(Nc1ccc(Oc2ncnc3[nH]ccc23)c(F)c1)c1cc2cccnc2n(-c2ccc(Cl)cc2)c1=O | 35.5 | 45 | 23.9 | IC50 [2]: 1.18 µM |
| Cn1ccc2c(Oc3ccc(NC(=O)c4cc5cccnc5n(-c5ccc(Br)cc5)c4=O)cc3)ncnc21 | 52.2 | 79.4 | 43.8 |  |
| Cn1ccc2c(Oc3ccc(NC(=O)c4cc5cccnc5n(-c5ccccc5)c4=O)cc3F)ncnc21 | 63.2 | 73.4 | 51.8 |  |
